Structures can show the parent of a compound that is named as a salt.
target: endogenous cellular BACE2 in the Ins1e rat cell line (Rattus norvegicus (Rat), UniProt Q6IE75); assay: Assay for BACE inhibition by measuring cellular TMEM27 cleavage (ELISA of shed hTMEM27 from INS-TMEM27 cells); format: cell-based; details: assay a): cellular TMEM27 cleavage, INS-TMEM27 cells (superscript a)
How it was run: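 INS1e-derived cells with doxycycline-inducible (TetOn) full-length human TMEM27 get inhibitor 2 h before 500 ng/ml doxycycline, then 46 h further culture at 37 °C. Shed TMEM27 in supernatant measured by sandwich ELISA (anti-extracellular-domain antibodies); EC50 from concentration-response curve fit.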

Sequence of endogenous cellular BACE2 in the Ins1e rat cell line (Q6IE75 63-514): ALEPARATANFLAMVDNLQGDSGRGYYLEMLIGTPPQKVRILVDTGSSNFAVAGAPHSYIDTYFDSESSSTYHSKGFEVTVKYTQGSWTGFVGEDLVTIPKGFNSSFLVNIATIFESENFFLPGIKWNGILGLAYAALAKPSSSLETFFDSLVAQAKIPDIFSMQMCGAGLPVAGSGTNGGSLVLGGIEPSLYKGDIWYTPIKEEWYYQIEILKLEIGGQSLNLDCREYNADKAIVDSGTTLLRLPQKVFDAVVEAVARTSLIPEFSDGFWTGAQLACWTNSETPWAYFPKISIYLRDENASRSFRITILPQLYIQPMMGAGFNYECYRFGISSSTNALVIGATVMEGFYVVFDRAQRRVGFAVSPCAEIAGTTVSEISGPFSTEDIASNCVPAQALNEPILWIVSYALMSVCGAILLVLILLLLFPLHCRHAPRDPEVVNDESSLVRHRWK

In order of falling IC50:
1. COc1ccc(C(=O)O)cc1Nc1ccc(F)c([C@@]2(C)N=C(N)N(C)C(=O)C2(C)C)c1 [Example 129, (S)-3-(3-(2-amino-1,4,5,5-tetramethyl-6-oxo-1,4,5,6-tetrahydropyrimidin-4-yl)-4-fluorophenylamino)-4-methoxybenzoic acid]  3050 nM
2. CN1C(=O)C(C)(C)[C@@](C)(c2cc(NC3CCC(CC(=O)O)C3(C)C)ccc2F)N=C1N (stereo partly drawn) [Example 116, 2-(3-(3-((S)-2-Amino-1,4,5,5-tetramethyl-6-oxo-1,4,5,6-tetrahydropyrimidin-4-yl)-4-fluorophenylamino)-2,2-dimethylcyclopentyl)acetic acid]  2160 nM
3. CN1C(=O)C(C)(C)[C@@](C)(c2cc(NC3CCc4c(C(=O)O)cccc43)ccc2F)N=C1N (stereo partly drawn) [Example 136, 1-[3-((S)-2-Amino-1,4,5,5-tetramethyl-6-oxo-1,4,5,6-tetrahydro-pyrimidin-4-yl)-4-fluoro-phenylamino]-indan-4-carboxylic acid]  2000 nM
4. CN1C(=O)C(C)(C)[C@@](C)(c2cc(NC(=O)C3(O)CC3)ccc2F)N=C1N [Example 134, 1-Hydroxy-cyclopropanecarboxylic acid [3-((S)-2-amino-1,4,5,5-tetramethyl-6-oxo-1,4,5,6-tetrahydro-pyrimidin-4-yl)-4-fluoro-phenyl]-amide]  734 nM
5. CN1C(=O)C(C)(C)[C@@](C)(c2cc(Nc3ccn[nH]3)ccc2F)N=C1N [Example 124, (S)-6-(5-(1H-Pyrazol-5-ylamino)-2-fluorophenyl)-2-amino-3,5,5,6-tetramethyl-5,6-dihydropyrimidin-4(3H)-one hydrochloride]  589 nM
6. CN1C(=O)C(C)(C)[C@@](C)(c2cc(Nc3cccnc3)ccc2F)N=C1N [Example 138, (S)-2-Amino-6-(2-fluoro-5-(pyridin-3-ylamino)phenyl)-3,5,5,6-tetramethyl-5,6-dihydropyrimidin-4(3H)-one]  500 nM
7. CN1C(=O)C(C)(C)[C@@](C)(c2cc(NC(=O)C(C)(O)c3ccc(Cl)cc3)ccc2F)N=C1N (stereo partly drawn) [Example 141, N-[3-((S)-2-Amino-1,4,5,5-tetramethyl-6-oxo-1,4,5,6-tetrahydro-pyrimidin-4-yl)-4-fluoro-phenyl]-2-(4-chloro-phenyl)-2-hydroxy-propionamide]  332 nM
8. CN1C(=O)C(C)(C)[C@@](C)(c2cc(NC(=O)C3(C)COC3)ccc2F)N=C1N [Example 131]  256 nM
9. CN1C(=O)C(C)(C)[C@@](C)(c2cc(NC3[C@H]4[C@@H](C[C@H]3O)[C@@H]4C(=O)O)ccc2F)N=C1N (stereo partly drawn) [Example 117, (1S,3R,5R,6S)-2-(3-((S)-2-amino-1,4,5,5-tetramethyl-6-oxo-1,4,5,6-tetrahydropyrimidin-4-yl)-4-fluorophenylamino)-3-hydroxybicyclo[3.1.0]hexane-6-carboxylic acid]  226 nM
10. CC(=O)N1CC(Nc2ccc(F)c([C@@]3(C)N=C(N)N(C)C(=O)C3(C)C)c2)c2ccc(F)cc21 (stereo partly drawn) [Example 137, (S)-6-[5-(1-Acetyl-6-fluoro-2,3-dihydro-1H-indol-3-ylamino)-2-fluoro-phenyl]-2-amino-3,5,5,6-tetramethyl-5,6-dihydro-3H-pyrimidin-4-one]  124 nM
11. CN1C(=O)C(C)(C)[C@@](C)(c2cc(NC(=O)[C@@](C)(O)C(F)(F)F)ccc2F)N=C1N [Example 142, (R)—N-(3-((S)-2-amino-1,4,5,5-tetramethyl-6-oxo-1,4,5,6-tetrahydropyrimidin-4-yl)-4-fluorophenyl)-3,3,3-trifluoro-2-hydroxy-2-methylpropanamide]  89 nM
12. CC(Nc1ccc(F)c([C@@]2(C)N=C(N)N(C)C(=O)C2(C)C)c1)c1nc2ccccc2s1 (stereo partly drawn) [Example 127, (S)-2-Amino-6-[5-(1-benzothiazol-2-yl-ethylamino)-2-fluoro-phenyl]-3,5,5,6-tetramethyl-5,6-dihydro-3H-pyrimidin-4-one]  73 nM
13. CN1C(=O)C(C)(C)[C@@](C)(c2cc(NC3COC3)ccc2F)N=C1N [Example 132, (S)-2-Amino-6-[2-fluoro-5-(oxetan-3-ylamino)-phenyl]-3,5,5,6-tetramethyl-5,6-dihydro-3H-pyrimidin-4-one]  54 nM
14. CN1C(=O)C(C)(C)[C@@](C)(c2cc(NC3CCOc4cc(F)ccc43)ccc2F)N=C1N (stereo partly drawn) [Example 140, (S)-2-Amino-6-[2-fluoro-5-(7-fluoro-chroman-4-ylamino)-phenyl]-3,5,5,6-tetramethyl-5,6-dihydro-3H-pyrimidin-4-one]  47 nM
15. COC(=O)c1ccc(Nc2ccc(F)c([C@@]3(C)N=C(N)N(C)C(=O)C3(C)C)c2)c(OC)c1 [Example 123, (S)-Methyl-4-(3-(2-amino-1,4,5,5-tetramethyl-6-oxo-1,4,5,6-tetrahydropyrimidin-4-yl)-4-fluorophenylamino)-3-methoxybenzoate]  46 nM
16. CN1C(=O)C(C)(C)[C@@](C)(c2cc(NC3COc4cc(Cl)ccc43)ccc2F)N=C1N (stereo partly drawn) [Example 133, (S)-2-Amino-6-[5-(6-chloro-2,3-dihydro-benzofuran-3-ylamino)-2-fluoro-phenyl]-3,5,5,6-tetramethyl-5,6-dihydro-3H-pyrimidin-4-one]  41 nM
17. CN1C(=O)C(C)(C)[C@@](C)(c2cc(NC(=O)C(C)(O)c3ccccc3)ccc2F)N=C1N (stereo partly drawn) [Example 139, N-[3-((S)-2-Amino-1,4,5,5-tetramethyl-6-oxo-1,4,5,6-tetrahydro-pyrimidin-4-yl)-4-fluoro-phenyl]-2-hydroxy-2-phenyl-propionamide]  31 nM
18. Cc1cc(C(C)Nc2ccc(F)c([C@@]3(C)N=C(N)N(C)C(=O)C3(C)C)c2)[nH]n1 (stereo partly drawn) [Example 125, (S)-2-Amino-6-{2-fluoro-5-[1-(5-methyl-2H-pyrazol-3-yl)-ethylamino]-phenyl}-3,5,5,6-tetramethyl-5,6-dihydro-3H-pyrimidin-4-one]  28 nM
19. Cc1nc(C(C)Nc2ccc(F)c([C@@]3(C)N=C(N)N(C)C(=O)C3(C)C)c2)sc1C (stereo partly drawn) [Example 126, (S)-2-Amino-6-{5-[1-(4,5-dimethyl-thiazol-2-yl)-ethylamino]-2-fluoro-phenyl}-3,5,5,6-tetramethyl-5,6-dihydro-3H-pyrimidin-4-one]  26 nM
20. CN1C(=O)C(C)(C)[C@@](C)(c2cc(Nc3ccccc3Cl)ccc2F)N=C1N [Example 119, (S)-2-Amino-6-(5-(2-chlorophenylamino)-2-fluorophenyl)-3,5,5,6-tetramethyl-5,6-dihydropyrimidin-4(3H)-one]  16 nM
21. COc1ccc(C(F)(F)F)cc1Nc1ccc(F)c([C@@]2(C)N=C(N)N(C)C(=O)C2(C)C)c1 [Example 121, (S)-2-Amino-6-(2-fluoro-5-(2-methoxy-5-(trifluoromethyl)phenylamino)phenyl)-3,5,5,6-tetramethyl-5,6-dihydropyrimidin-4(3H)-one]  9 nM
22. Cc1ccc(Cl)cc1Nc1ccc(F)c([C@@]2(C)N=C(N)N(C)C(=O)C2(C)C)c1 [Example 118, (S)-2-Amino-6-(5-(5-chloro-2-methylphenylamino)-2-fluorophenyl)-3,5,5,6-tetramethyl-5,6-dihydropyrimidin-4(3H)-one]  2 nM
23. CN1C(=O)C(C)(C)[C@@](C)(c2cc(NC3CCCC3C#N)ccc2F)N=C1N (stereo partly drawn) [Example 135, 2-[3-((S)-2-Amino-1,4,5,5-tetramethyl-6-oxo-1,4,5,6-tetrahydro-pyrimidin-4-yl)-4-fluoro-phenylamino]-cyclopentanecarbonitrile]  1 nM
